Assay results published in ChEMBL document CHEMBL2424533, “Design and regioselective synthesis of trifluoromethylquinolone derivatives as potent antimicrobial agents” (2013).
≈ marks a conversion by molar mass, not a printed value. Calls of active or inactive are those of the source. The calls are words filed in the database; no cut-off is given here.

Assays:
Staphylococcus aureus [1] = experiment: microbe, parasite or virus in culture; details: MTCC 3160, 12 h, read-out: DIZ
Description: (§1) Antimicrobial activity against Staphylococcus aureus MTCC 3160 at 50 ug/mL after 12 hrs by well diffusion method

Staphylococcus aureus [2] = experiment: Antimicrobial activity against Staphylococcus aureus MTCC 3160 at 100 ug/mL after 12 hrs by well diffusion method; assay type: functional; details: for zone of inhibition at 100 µg/mL: MTCC 3160, 12 h, read-out: DIZ
Salmonella typhimurium [3] = experiment: Antimicrobial activity against Salmonella typhimurium MTCC 3732 at 100 ug/mL after 12 hrs by well diffusion method; assay type: functional, Salmonella enterica subsp. enterica serovar Typhimurium; details: for zone of inhibition at 100 µg/mL: Salmonella enterica, MTCC 3732, 12 h, read-out: DIZ; for diameter of the inhibition zone (DIZ): Salmonella enterica subsp. enterica serovar Typhimurium
Pseudomonas aeruginosa [4] = experiment: Antimicrobial activity against Pseudomonas aeruginosa MTCC 4673 at 100 ug/mL after 12 hrs by well diffusion method; assay type: functional; details: MTCC 4673, 12 h, read-out: DIZ
Pseudomonas aeruginosa [5] = experiment: Antimicrobial activity against Pseudomonas aeruginosa MTCC 4673 at 50 ug/mL after 12 hrs by well diffusion method; assay type: functional; details: MTCC 4673, 12 h, read-out: DIZ
Pseudomonas aeruginosa [6] = experiment: Antimicrobial activity against Pseudomonas aeruginosa MTCC 4673 after 12 hrs by well diffusion method; assay type: functional; details: MTCC 4673, 12 h
[7] = tested on: Mycolicibacterium smegmatis; experiment: Antimicrobial activity against Mycobacterium smegmatis MTCC 943 at 50 ug/mL after 12 hrs by well diffusion method; assay type: functional; details: for zone of inhibition at 50 µg/mL: MTCC 943, 12 h, read-out: DIZ
Salmonella typhimurium [8] = experiment: Antimicrobial activity against Salmonella typhimurium MTCC 3732 at 50 ug/mL after 12 hrs by well diffusion method; assay type: functional, Salmonella enterica subsp. enterica serovar Typhimurium; details: for zone of inhibition at 50 µg/mL: Salmonella enterica, MTCC 3732, 12 h, read-out: DIZ; for diameter of the inhibition zone (DIZ): Salmonella enterica subsp. enterica serovar Typhimurium
[9] = tested on: Mycolicibacterium smegmatis; experiment: Antimicrobial activity against Mycobacterium smegmatis MTCC 943 after 12 hrs by well diffusion method; assay type: functional; details: MTCC 943, 12 h
Staphylococcus aureus [10] = experiment: Antimicrobial activity against Staphylococcus aureus MTCC 3160 after 12 hrs by well diffusion method; assay type: functional; details: MTCC 3160, 12 h
[11] = tested on: Mycolicibacterium smegmatis; experiment: Antimicrobial activity against Mycobacterium smegmatis MTCC 943 at 100 ug/mL after 12 hrs by well diffusion method; assay type: functional; details: for zone of inhibition at 100 µg/mL: MTCC 943, 12 h, read-out: DIZ
Salmonella typhimurium [12] = experiment: Antimicrobial activity against Salmonella typhimurium MTCC 3732 after 12 hrs by well diffusion method; assay type: functional, Salmonella enterica subsp. enterica serovar Typhimurium; details: Salmonella enterica, MTCC 3732, 12 h
Candida albicans [13] = experiment: Antimicrobial activity against Candida albicans MTCC 183 at 50 ug/mL after 12 hrs by well diffusion method; assay type: functional
Penicillium chrysogenum = experiment: Antimicrobial activity against Penicillium chrysogenum MTCC 6795 at 50 to 100 ug/mL after 48 hrs by well diffusion method; assay type: functional, organism-based
Candida albicans [14] = experiment: Antimicrobial activity against Candida albicans MTCC 183 after 12 hrs by well diffusion method; assay type: functional; details: MTCC 183, 12 h
Candida albicans [15] = experiment: Antimicrobial activity against Candida albicans MTCC 183 at 100 ug/mL after 12 hrs by well diffusion method; assay type: functional
Staphylococcus aureus [16] = details: MTCC 3160, 50 ug/mL
Description: as §1

MIC (Pseudomonas aeruginosa [6]) | MIC [9] | MIC (Staphylococcus aureus [10]) | MIC (Salmonella typhimurium [12]) | MIC (Candida albicans [14]) | SMILES | zone of inhibition at 100 µg/mL (Staphylococcus aureus [2]) | zone of inhibition at 100 µg/mL (Salmonella typhimurium [3]) | zone of inhibition at 100 µg/mL (Pseudomonas aeruginosa [4]) | zone of inhibition at 50 µg/mL (Pseudomonas aeruginosa [5]) | zone of inhibition at 50 µg/mL [7] | zone of inhibition at 50 µg/mL (Salmonella typhimurium [8]) | zone of inhibition at 100 µg/mL [11] | diameter of the inhibition zone (DIZ) (Candida albicans [13]) | diameter of the inhibition zone (DIZ) (Salmonella typhimurium [3]) | Activity (Penicillium chrysogenum) | diameter of the inhibition zone (DIZ) (Salmonella typhimurium [8]) | diameter of the inhibition zone (DIZ) (Candida albicans [15]) | DIZ (Staphylococcus aureus [16]) | diameter of the inhibition zone (DIZ) (Staphylococcus aureus [2]) | further results
25 µg/mL (≈ 80.8 µM) | 25 µg/mL (≈ 80.8 µM) | 100 µg/mL (≈ 323 µM) | 25 µg/mL (≈ 80.8 µM) | > 100 µg/mL | C#CCn1cc(C(=O)NN)c(=O)c2ccc(C(F)(F)F)cc21 |  | 8 mm | 8 mm | 8 mm | 8 mm | 7.6 mm | 8 mm | inactive |  | inactive |  | inactive | inactive | inactive | 
25 µg/mL (≈ 62.4 µM) | 50 µg/mL (≈ 125 µM) | > 100 µg/mL | 50 µg/mL (≈ 125 µM) | > 100 µg/mL | CCOC(=O)c1cn(Cc2ccc(C#N)cc2)c2cc(C(F)(F)F)ccc2c1=O |  | 8 mm | 8 mm | 8 mm | 7 mm | 7.3 mm |  | inactive |  | inactive |  | inactive | inactive | inactive | diameter of the inhibition zone (DIZ) [11]: inactive
25 µg/mL (≈ 64.7 µM) | 25 µg/mL (≈ 64.7 µM) | > 100 µg/mL | > 100 µg/mL | > 100 µg/mL | N#Cc1ccc(Cn2cc(C(=O)NN)c(=O)c3ccc(C(F)(F)F)cc32)cc1 |  |  | 8 mm | 8 mm | 8 mm |  | 8 mm | inactive | inactive | inactive | inactive | inactive | inactive | inactive | 
25 µg/mL (≈ 58.1 µM) | > 100 µg/mL | 100 µg/mL (≈ 232 µM) | 25 µg/mL (≈ 58.1 µM) | > 100 µg/mL | NNC(=O)c1cn(Cc2ccc(Cl)cc2Cl)c2c(C(F)(F)F)cccc2c1=O | 9 mm | 12 mm | 8 mm | 8 mm |  | 11.3 mm |  | inactive |  | inactive |  | inactive | inactive |  | diameter of the inhibition zone (DIZ) [7]: inactive; diameter of the inhibition zone (DIZ) [11]: inactive

Second part, the compound before the results:

SMILES | MIC (Pseudomonas aeruginosa [6]) | MIC [9] | MIC (Staphylococcus aureus [10]) | MIC (Salmonella typhimurium [12]) | MIC (Candida albicans [14]) | zone of inhibition at 100 µg/mL (Staphylococcus aureus [2]) | zone of inhibition at 100 µg/mL (Salmonella typhimurium [3]) | zone of inhibition at 100 µg/mL (Pseudomonas aeruginosa [4]) | zone of inhibition at 50 µg/mL (Pseudomonas aeruginosa [5]) | zone of inhibition at 50 µg/mL [7] | zone of inhibition at 50 µg/mL (Salmonella typhimurium [8]) | zone of inhibition at 100 µg/mL [11] | diameter of the inhibition zone (DIZ) (Candida albicans [13]) | diameter of the inhibition zone (DIZ) (Salmonella typhimurium [3]) | Activity (Penicillium chrysogenum) | diameter of the inhibition zone (DIZ) (Salmonella typhimurium [8]) | diameter of the inhibition zone (DIZ) (Candida albicans [15]) | DIZ (Staphylococcus aureus [16]) | diameter of the inhibition zone (DIZ) (Staphylococcus aureus [2]) | further results
O=C(O)c1cn(C2CC2)c2cc(N3CCNCC3)c(F)cc2c1=O [CIPROFLOXACIN] | < 5 µg/mL | < 5 µg/mL | < 5 µg/mL | < 5 µg/mL |  | 13 mm | 37 mm | 30 mm | 26.6 mm | 29 mm | 37 mm | 30 mm |  |  |  |  |  |  |  | zone of inhibition at 50 µg/mL (Staphylococcus aureus [1]): 13 mm
CCOC(=O)c1cn(Cc2ccc(Cl)cc2Cl)c2c(C(F)(F)F)cccc2c1=O | 50 µg/mL (≈ 113 µM) | 50 µg/mL (≈ 113 µM) | 100 µg/mL (≈ 225 µM) | > 100 µg/mL | > 100 µg/mL | 9 mm |  | 7 mm | 7 mm | 7 mm |  | 8 mm | inactive | inactive | inactive | inactive | inactive | inactive |  | 
N#Cc1ccc(Cn2cc(C(=O)NN)c(=O)c3cccc(C(F)(F)F)c32)cc1 | 25 µg/mL (≈ 64.7 µM) | 50 µg/mL (≈ 129 µM) | 100 µg/mL (≈ 259 µM) | > 100 µg/mL | > 100 µg/mL | 8 mm |  | 8 mm | 8 mm | 7.3 mm |  | 8 mm | inactive | inactive | inactive | inactive | inactive | inactive |  | 
